Entries after “also recorded” stand apart in the source; their conditions may differ.
Experiments:
[1] = tested on: HT-29; assay: Anti-proliferative activity, cell growth inhibition (CellTiterGlo, 72 h); assay type: cell-based, human; details: Homo sapiens; for IC50: HT-29, 72 h, 72 h; for inhibition at 30 µM: HT-29, quadruplicate, read-out: Cell growth inhibitory activity, HT-29
Experimental: (§1) Twenty compounds, i.e. 4a-o and 7a-e, were analyzed for cancer cell growth inhibitory activity. These studies were carried out using cells derived from human lung, colon and breast tumors (A549, HT-29 and ZR-75 cells, respectively). This initial assessment of activity tested each compound in quadruplicate at a single concentration of 30 μM, if solubility permitted.
(§2) A549, HT-29, ZR-75 were obtained from the American Type Culture Collection (ATCC). Cells were harvested from 90-95% confluent 10 cm dishes, and diluted in growth media (RPMI-1640 supplemented with 5% fetal bovine serum). An appropriate concentration of cells were prepared to add 1,250 cells in a volume of 25 µL per well in tissue culture treated Griener 384-well microplates, then incubated overnight at 37°C. Compound 7e was diluted to a concentration of 30 µM in DMSO. Concentrated dosing solutions of twice the final concentration were prepared by dilution of the DMSO stocks 1:500 in growth media. Two-fold serial dilutions were then prepared in medium containing 0.2% DMSO to maintain a constant concentration of vehicle throughout the concentration range of the compound. Each of these was added in an equal volume (25 µL) to four wells on each cell assay plate, along with the vehicle control. The highest concentration for serial dilutions of the positive control (sunitinib) was prepared exactly as the experimental compound 7e. Cells were incubated with the compounds for a further 72 h.
(§3) At the end of the treatment period, assay plates were allowed to cool to RT for 10 min prior to the addition of 25 µL per well Promega CellTiterGlo reagent, followed by additional 10 min incubation at RT. The resulting luminescence was quantitated using a Molecular Devices Spectramax Paradigm.
(§4) Percent growth inhibition was calculated as follows, where 100 represents the viability of vehicle treated control samples:
(§5) The potency of compounds was determined using the non-linear dose response algorithm (four-parameter logistic fit) with GraphPad Prism 5 software.

[2] = tested on: ZR-75; assay: as above; assay type: cell-based, human; details: Homo sapiens; for IC50: ZR75, 72 h; for inhibition at 30 µM: ZR75, quadruplicate, read-out: Cell growth inhibitory activity, ZR-75
Experimental: as §1, §2, §3, §4, §5

[3] = tested on: A549; assay: as above; assay type: cell-based, human; details: Homo sapiens; for IC50: A549, 72 h, read-out: IC50 A-549; for inhibition at 30 µM: A549, quadruplicate, read-out: Cell growth inhibitory activity, A-549
Experimental: as §1, §2, §3, §4, §5

[4] = tested on: A549; assay: Cell cycle effects and total cell number (DAPI imaging); assay type: cell-based, human; details: for Cell cycle effects: A549; for IC50: Homo sapiens
Experimental: Compound 7e was analyzed for effects on various aspects of cell cycle progression in human cancer cells. These studies were carried out using cells derived from lung adenocarcinoma (A549). This follow-up assessment of activity tested compounds used immunofluorescent imaging of phosphorylated Rb protein and the total DNA content of each cell to determine the cell cycle phase. The ability of the test compounds to affect the cell cycle and Rb phosphorylation was tested over a range of concentrations from less than 100 nM to 50 μM.
Fig 5 Dose-dependent changes in cell cycle. Distribution of cells within the cell cycle as well as total cell numbers were quantitated by fluorescent staining of nuclear DNA with DAPI. Phosphorylated Rb protein was detected by indirect immunofluorescence followed by automated image acquisition and analysis. […] All IC50 values are given under one unlabelled substance, with the y-axis title of each plot written in front as the measure.
A549 cells were harvested from a 90% confluent 10 cm dish and diluted in growth medium. An appropriate concentration of cells were prepared to add 5,000 cells in a volume of 100 µL per well in tissue culture treated PerkinElmer optical bottom ViewPlate microplates, then incubated overnight at 37°C. The following day, compound 7e and the positive control, sunitinib, were diluted in DMSO to concentrations 1000-fold above the maximum tested concentration.
Concentrated dosing solutions of twice the final concentration were prepared by dilution of the DMSO stocks 1:500 in growth media. Three-fold dilutions of each dosing medium were then prepared in medium containing 0.2% DMSO to maintain a constant concentration of vehicle throughout the concentration range of each compound. Each of these was added in equal volume (100 µL) to each well on the assay plate, along with the vehicle control. One plate of cells was incubated with the compounds for a further 24 h, and a separate plate was incubated with the compounds for 48 h.
DAPI (1 µg/mL) fluorescent dye was incubated with fixed cells to quantitate double stranded DNA within each cell nucleus to determine cell cycle distribution. DNA content in each cell was determined by total DAPI fluorescent intensity by high throughput image acquisition and analysis. Fluorescent intensities were plotted on histograms with threshold intensity values assigned to each cell cycle classification using the MetaXpress cell cycle analysis program. Results from each treatment were reported as average cell number in each of nine fields, as well as the percentage of cells within each phase of the cell cycle. Each of these parameters was analyzed using GraphPad Prism, and, where appropriate, IC50 values have been reported.

[5] = tested on: IEC-6; assay: Selectivity: growth inhibition in non-tumorigenic cell line; assay type: cell-based; details: Rattus norvegicus, 72 h, maximum 25 μM, read-out: IC50 Intestine IEC-6
Experimental: This assessment of the growth inhibitory activity of the compounds was tested in quadruplicate at a maximum concentration of 25 μM, followed by 10 serially diluted concentrations.
A549, IEC-6, MCF-10A and 3t3 cells were harvested from 90-95% confluent cultures in 10 cm dishes, and diluted in growth media recommended by the suppliers as follows: A549 cells were cultured in RPMI-1640 medium supplemented with 5% fetal bovine serum (FBS). IEC-6 cells were obtained from ATCC and cultured in Dulbecco’s modified Eagle’s medium (DMEM) supplemented with 10% FBS and 0.1 unit/mL recombinant insulin. Swiss 3t3 cells were obtained from ATCC and cultured in DMEM supplemented with 10% FBS. […]
as §3, with “to” for “to the”, “by an” for “by”, “Paradigm.Percent growth inhibition was calculated using equation (1). The potency of compounds was determined using the non-linear dose response algorithm (four-parameter logistic fit) with GraphPad Prism 5 software.” for “Paradigm.”

[6] = A549, 24 h, read-out: IC50 for reductions in the total cell number
[7] = A549, 48 h, read-out: IC50 for reductions in the total cell number

SMILES	IC50 [1]	inhibition at 30 µM [1]	IC50 [2]	inhibition at 30 µM [2]	IC50 [3]	inhibition at 30 µM [3]	Cell cycle effects [4]	IC50 ([4]; A549, 24 h, read-out: IC50, % G1-Phase cells)	IC50 [4, 6]	IC50 ([4]; A549, 48 h, read-out: IC50, % G1-Phase cells)	IC50 [4, 7]	IC50 [5]
O=C1Nc2ccc(Br)cc2C1=NN=C1C(=O)N(Cc2ccccc2)c2ccccc21 [Compound 7e, 1-Benzyl-3-((5-bromo-2-oxoindolin-3-ylidene)hydrazono)indolin-2-one]	2.49 µM	95.7 ± 4.2%	1.79 µM	96.1 ± 4.6%	2.83 µM	97.1 ± 3.3%	decreased the percentage of cells in the G1 phase of the cell cycle with a corresponding increase in the S-phase; also recorded: decrease in the percentage of cells in the G1 phase of the cell cycle with a corresponding increase in the S-phase; also recorded: G1 decreased, S-phase increased	6.26 µM	2.67 µM	5.16 µM	2.36 µM	3.72 µM
CCN(CC)CCNC(=O)c1c(C)[nH]c(/C=C2\C(=O)Nc3ccc(F)cc32)c1C [Sunitinib, sunitinib, reference compound]	10.1 µM	59.5 ± 2.3%	8.31 µM	90.7 ± 4.5%	5.87 µM	85.7 ± 2.7%	G1 decreased and G2/M-phases increased		12.5 µM		3.48 µM	4.56 µM

Source: publication PMC5526551, “New hydrazonoindolin-2-ones: Synthesis, exploration of the possible anti-proliferative mechanism of action and encapsulation into PLGA microspheres” (PLoS ONE, 2017)
